# Test results reported in patent publication US8552161B2, “Saponin compounds, methods of preparation thereof, use thereof and pharmaceutical compositions” (Uniwersytet W Bialymstoku, priority 2009, dated 2013).
# Assays:
# Type in all cases: cell-based
# CEM cells = assay: Flow cytometry cell cycle and apoptosis (subG1) analysis
# Procedure: The leukemia cancer CEM cells were trypsinized, seeded in 6 well plates, and immediately incubated with the respective compounds. […] Triton X-100, and 50 μg/ml propidium iodide in PBS. DNA content was assessed with a flow cytometer (Cell Lab Quanta SC—MPL, Beckman Coulter, Calif., USA). In a histogram analysis, distribution of cells into the subG1 (“apoptotic cells”), the G0/G1, S and the G2/M peak was quantified using software MultiCycle AV (Phoenix Flow Systems, CA, USA).
# leukemia cells (CEM) = assay: Western blot analysis of apoptosis related proteins; details: 24 h
# Procedure: The cells were seeded in a density 2.2×10^4 cells/cm^2 using culture medium in 100-mm culture dishes. Immediately the cells were treated by novel saponins: 3 (1; 2.5; 5 μM), 6 (0.1; 0.25; 0.5 μM) and 7 (5; 7.5; 10 μM). DMSO was used as a vehicle for controls. After 24 h treatment, the cells were washed three times with cold PBS (10 mM, pH 7.4) and lysed in ice-cold protein extract RIPA buffer (20 mM Tris-HCl, pH 7.4, 5 mM EDTA, 2 mM EGTA, 100 mM NaCl, 2 mM NaF, 0.2% Nonidet P-40, 30 mM PMSF, 1 mM DTT, […] of aprotinin and leupeptin). The lysate was collected into microfuge tube and incubated on ice for 1 h. It was then cleared by centrifugation at 10,000×g for […] at 4° C., and supernatant was collected, aliquoted, and stored at −80° C. Proteins in lysates were quantified by the Bradford method and then diluted with Laemmli electrophoresis buffer. Proteins were then separated on 10% or 12% SDS-polyacrylamide gels, transferred onto nitrocellulose membranes (Bio-Rad Laboratories, CA, USA) and stained with Ponceau S to check equal protein loading. The membranes were blocked with 5% (w/v) non-fat dry milk and 0.1% Tween-20 in PBS for 2 h and probed with the specific primary antibodies overnight. After washing in PBS and PBS with 0.1% Tween-20, the membranes were probed with horseradish peroxidase-conjugated secondary antibodies and visualized with chemiluminescent detection reagent West Pico Supersignal (Thermo Fisher Scientific, Rockford, USA). To confirm equal protein loading, immunodetection was performed with the anti-α-tubulin monoclonal antibody. The experiments were repeated three times. The protein expressions in treated cells were compared to untreated controls.
# [1] = test system: normal human fibroblasts BJ; assay: Calcein AM cytotoxicity assay, normal fibroblasts BJ; details: 72 h, means ± SD, three independent experiments in triplicate
# Procedure: Stock solutions (10 mmol/l) of the tested compounds were prepared by dissolving relevant quantity of the substance in DMSO. […] Calcein AM was obtained from Molecular Probes (Invitrogen Corporation, CA, USA).
# All cell lines were cultured in DMEM medium (Sigma, Mo., USA). Medium was supplemented with 10% heat-inactivated fetal bovine serum, 2 mmol/l L-glutamine and 1% penicillin-streptomycin. The cell lines were maintained under standard cell culture conditions at 37° C. and 5% CO2 in a humid environment. Cells were subcultured twice or three times a week using the standard trypsinization procedure.
# All cell lines were cultured in DMEM medium (Sigma, Mo., USA) supplemented with 10% fetal calf serum, 2 mM glutamine, 100 U/ml penicillin and 100 μg/ml streptomycin, at 37° C. in a fully humidified atmosphere containing 5% CO2. Suspensions of these lines (ca. 1.0×10^5 cells/ml) were placed in 96-well microtitre plates and after 3 h of stabilization the tested compounds were added in serially diluted concentrations. Saponins were dissolved in dimethylsulfoxide (DMSO) before addition to cultures. Control cultures were treated with DMSO alone. The final concentration of DMSO in the reaction mixtures never exceeded 0.6%. Four-fold dilutions of the intended test concentration were added at time zero in 20 μl aliquots to the microtitre plate wells. Usually, each test compound was evaluated at six 4-fold dilutions and in routine testing; the highest well concentration was 50 μM, although this varied in a few cases, depending on the test compound. After 72 h of culture, the cells were incubated with Calcein AM solution (Molecular Probes) for 1 h. The fluorescence of viable cells was quantified using a Fluoroscan Ascent instrument (Microsystems).
smiles,measurement,setting,value
"C/C=C/C(=O)OC[C@@H](C)[C@@]1(O)[C@@H](O[C@@H]2OC[C@H](O)[C@H](O[C@@H]3OC[C@@H](O)[C@H](O)[C@H]3OC(=O)c3ccc(OC)cc3)[C@H]2OC(C)=O)C[C@H]2[C@@H]3CC=C4C[C@@H](O)CC[C@]4(C)[C@H]3CC[C@@]21C [Compound 7, (20R)-21-O-[(E)-but-2-enoyl]-20-methylpregn-5-ene-3β,16β,17α,21-tetraol 16-O-{2-O-(4-methoxybenzoyl)-β-D-xylopyranosyl-(1→3)-2′-O-acetyl-α-L-arabinopyranoside}]",subG1 phase of the cell cycle (apoptotic cells),CEM cells; CEM cell line after treatment,increase in subG1 phase
same,amount of debris (subG1) compared with untreated controls,"CEM cells; CEM cells, 24 h (FIG. 3)",3 fold
same,distribution of CEM cells in cell cycle phases (FIG. 2),"CEM cells; CEM cells, increasing concentrations",increased the number of S-phase and G2/M cells with concomitant decrease of G0/G1 cells in dose-dependent manner
same,Apoptosis subG1,"CEM cells; CEM, 24 h, 3 μM",15%
same,Cell cycle distribution G0/G1,"CEM cells; CEM, 24 h, 3 μM",14%
same,Cell cycle distribution G2/M,"CEM cells; CEM, 24 h, 3 μM",30%
same,Cell cycle distribution S,"CEM cells; CEM, 24 h, 3 μM",41%
same,PARP (Western blot),leukemia cells (CEM); dose-dependent (FIG. 5),cleavage of PARP
same,antiapoptotic Bcl-2 protein,leukemia cells (CEM); dose-dependent (FIG. 5),increased
same,caspase-3 (Western blot),leukemia cells (CEM); dose-dependent (FIG. 5),accumulation of caspase-3
same,expression of tumour suppressor protein p53,leukemia cells (CEM); dose-dependent (FIG. 5),enhanced expression
same,phosphorylation of pRb S780,leukemia cells (CEM); same concentrations (FIG. 5),increase of phosphorylation of pRb S780
same,IC50,[1],230 ± 80 nM
